Values of other authors as cited in patent publication US7662811B2, “1,2,3,4-tetrahydropyrazin-2-yl acetamides and methods of use” (Amgen Inc., priority 2004, dated 2010).
No end group written: not given here.

## RPPGFSPFR [BK]
  half-life of BK in plasma: approximately 17 seconds
